Patent publication US9718817B2, “Aryl and heteroaryl ether compounds as ROR gamma modulators” (Glenmark Pharmaceuticals S.A., priority 2014, dated 2017)

Target: T1, GST-tagged ROR gamma ligand binding domain (LBD) (Homo sapiens, UniProt P51449)
T1 construct: purchased Invitrogen
T1 sequence (P51449 269-508 limits assumed): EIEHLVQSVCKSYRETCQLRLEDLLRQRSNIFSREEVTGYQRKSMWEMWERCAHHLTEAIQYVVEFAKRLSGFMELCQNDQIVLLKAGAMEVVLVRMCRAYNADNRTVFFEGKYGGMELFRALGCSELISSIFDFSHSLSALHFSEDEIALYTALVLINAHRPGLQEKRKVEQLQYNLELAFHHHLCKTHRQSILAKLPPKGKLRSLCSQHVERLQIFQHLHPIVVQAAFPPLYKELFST
Experiment: TR-FRET assay for ROR gamma (LanthaScreen co-activator peptide recruitment)
Type: biochemical
Conditions: for inhibition at 1 µM: compound 1 μM; for inhibition at 1 µM / inhibition at 10 µM: TR-FRET ratio 520/495, percent of control; for inhibition at 10 µM: compound 10 μM; for IC50: class symbols, from dose response curve
How it was run: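 Antagonist mode: 10 nM GST-RORγ LBD pre-incubated with compound 1 h at 22 °C in 25 mM HEPES pH 7.4, 100 mM NaCl, 5 mM DTT, 0.01% BSA, 4% DMSO final. Then 300 nM fluorescein-D22 co-activator peptide plus 10 nM Tb-anti-GST added, 1 h at room temperature. IC50 by nonlinear regression of the 520/495 TR-FRET ratio as percent of no-compound control.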

Row | SMILES | inhibition at 1 µM [%] | inhibition at 10 µM [%] | IC50 [nM]
1 | CCn1c(C(F)(F)Oc2ccc(F)cc2F)nc2cc(NC(=O)Cc3ccc(S(=O)(=O)CC)cc3)ccc21 [Example 118, N-{2-[(2,4-Difluoro-phenoxy)-difluoromethyl]-1-ethyl-1H-benzoimidazol-5-yl}-2-(4-ethanesulfonyl-phenyl)-acetamide] | 5.43 | 9.14 | –
2 | CCS(=O)(=O)c1ccc(CC(=O)Nc2ccc(OC3(c4ccc(Cl)c(F)c4)CCC3)c(F)c2)cc1 [Example 119, N-{4-[1-(4-Chloro-3-fluorophenyl)-cyclobutoxy]-3-fluoro-phenyl}-2-(4-ethanesulfonyl-phenyl)-acetamide] | 84.9 | 84.5 | < 50
3 | CCS(=O)(=O)c1ccc(CC(=O)Nc2ccc(OC3(c4ccc(Cl)c(F)c4)CCCC3)cc2)cc1 [Example 120, N-{4-[1-(4-Chloro-3-fluorophenyl)-cyclopentyloxy]-phenyl}-2-(4-ethanesulfonyl-phenyl)-acetamide] | 84.8 | 89.6 | < 50
4 | CCS(=O)(=O)c1ccc(CC(=O)Nc2ccc(OC3(c4ccc(Cl)c(F)c4)CCCC3)c(F)c2)cc1 [Example 121, N-{4-[1-(4-Chloro-3-fluorophenyl)-cyclopentyloxy]-3-fluorophenyl}-2-(4-ethanesulfonyl-phenyl)-acetamide] | 86.8 | 90.2 | < 50
5 | CCS(=O)(=O)c1ccc(CC(=O)Nc2ccc(OC3(c4ccc(Cl)c(F)c4)CCCCC3)c(F)c2)cc1 [Example 122, N-{4-[1-(4-Chloro-3-fluorophenyl)-cyclohexyloxy]-3-fluorophenyl}-2-(4-ethanesulfonyl-phenyl)-acetamide] | 77.3 | 81.2 | < 50
6 | CCS(=O)(=O)c1ccc(CC(=O)Nc2ccc(OC3(c4ccc(Cl)cc4Cl)CCCC3)cc2)cc1 [Example 123, N-{4-[1-(2,4-Dichlorophenyl)-cyclopentyloxy]-phenyl}-2-(4-ethanesulfonyl-phenyl)-acetamide] | 82 | 87.2 | < 50
7 | CCS(=O)(=O)c1ccc(CC(=O)Nc2ccc(OC3(c4ccc(Cl)c(F)c4)CCCCC3)cc2)cc1 [Example 124, N-{4-[1-(4-Chloro-3-fluorophenyl)-cyclohexyloxy]-phenyl}-2-(4-ethanesulfonyl-phenyl)-acetamide] | 82.2 | 84.8 | < 50
8 | CCS(=O)(=O)c1ccc(CC(=O)Nc2ccc3c(c2)nc(C(C)(C)Oc2ccc(F)cc2F)n3C2CC2)cc1 [Example 125, N-{1-Cyclopropyl-2-[1-(2,4-difluorophenoxy)-1-methylethyl]-1H-benzoimidazol-5-yl}-2-(4-ethanesulfonyl-phenyl)-acetamide] | 89.2 | 90.4 | < 50
9 | CCn1c(C(C)(C)Oc2cc(F)ccc2F)nc2cc(NC(=O)Cc3ccc(S(=O)(=O)CC)cc3)ccc21 [Example 126, N-{2-[1-(2,5-Difluorophenoxy)-1-methylethyl]-1-ethyl-1H-benzoimidazol-5-yl}-2-(4-ethanesulfonylphenyl)-acetamide] | 85.9 | 89.5 | < 50
10 | CCN(C(=O)C(C)(C)Oc1ccc(NC(=O)Cc2ccc(S(=O)(=O)CC)cc2)cc1)c1ccc(Cl)cc1 [Example 127, N-(4-Chlorophenyl)-2-{4-[2-(4-ethanesulfonylphenyl)acetylamino]-phenoxy}-N-ethyl-2-methylpropionamide] | 68 | 75.8 | –
11 | CCS(=O)(=O)c1ccc(CC(=O)Nc2ccc(OC(C)(C)C(=O)N(C)c3ccc(Cl)cc3)cc2)cc1 [Example 128, N-(4-Chlorophenyl)-2-{4-[2-(4-ethanesulfonylphenyl)acetylamino]-phenoxy}-2-N-dimethylpropionamide] | 64.2 | 79.8 | –
12 | CCN(C(=O)C(C)(C)Oc1ccc(NC(=O)Cc2ccc(S(=O)(=O)CC)cc2)cc1)c1ccc(Cl)cc1Cl [Example 129, N-(2,4-Dichlorophenyl)-N-ethyl-2-(4-(2-(4-(ethylsulfonyl)phenyl)acetamido)phenoxy)-2-methylpropanamide] | 2.49 | 8.35 | –
13 | CCN(C(=O)C(C)(C)Oc1ccc(NC(=O)Cc2ccc(S(=O)(=O)CC)cc2)cc1)c1ccc(Cl)c(F)c1 [Example 130, N-(4-Chloro-3-fluorophenyl)-N-ethyl-2-(4-(2-(4-(ethylsulfonyl)phenyl)acetamido)phenoxy)-2-methylpropanamide] | 73 | 85.2 | > 100
14 | CCN(C(=O)C(C)(C)Oc1ccc(NC(=O)Cc2ccc(S(=O)(=O)CC)cc2)cc1F)c1ccc(Cl)c(F)c1 [Example 131, N-(4-Chloro-3-fluorophenyl)-N-ethyl-2-(4-(2-(4-(ethylsulfonyl)phenyl)acetamido)-2-fluorophenoxy)-2-methylpropanamide] | 69.8 | 72.9 | 50 to 100
15 | CCN(C(=O)C(C)(C)Oc1ccc(F)cc1F)c1ccc(NC(=O)Cc2ccc(S(=O)(=O)CC)cc2)cc1 [Example 132, 2-(2,4-Difluorophenoxy)-N-ethyl-N-(4-(2-(4-(ethylsulfonyl)phenyl)acetamido)phenyl)-2-methylpropanamide] | 52.9 | 60.9 | –
16 | CCS(=O)(=O)c1ccc(CC(=O)Nc2ccc(OC3(c4ccc(Cl)cc4Cl)CCCCC3)cc2)cc1 [Example 134, N-(4-((1-(2,4-Dichlorophenyl)cyclohexyl)oxy)phenyl)-2-(4-(ethylsulfonyl)phenyl)acetamide] | 77.3 | 81.1 | < 50
17 | CCS(=O)(=O)c1ccc(CC(=O)Nc2ccc(OC3(c4ccc(Cl)cc4Cl)CCCCC3)c(F)c2)cc1 [Example 135, N-(4-((1-(2,4-Dichlorophenyl)cyclohexyl)oxy)-3-fluorophenyl)-2-(4-(ethylsulfonyl)phenyl)acetamide] | 73.2 | 77 | 50 to 100
18 | CCS(=O)(=O)c1ccc(CC(=O)Nc2ccc(OC3(c4ccc(Cl)cc4Cl)CCOCC3)c(F)c2)cc1 [Example 136, N-(4-((4-(2,4-Dichlorophenyl)tetrahydro-2H-pyran-4-yl)oxy)-3-fluorophenyl)-2-(4-(ethylsulfonyl)phenyl)acetamide] | 71.6 | 79.3 | < 50
19 | CCS(=O)(=O)c1ccc(CC(=O)Nc2ccc(OC3(c4ccc(Cl)cc4Cl)CCCC3)c(F)c2)cc1 [Example 137, N-(4-((1-(2,4-Dichlorophenyl)cyclopentyl)oxy)-3-fluorophenyl)-2-(4-(ethylsulfonyl)phenyl)acetamide] | 80 | 86.5 | < 50
20 | CCS(=O)(=O)c1ccc(CC(=O)Nc2ccc(OC3(c4ccc(Cl)cc4Cl)CC3)c(F)c2)cc1 [Example 138, N-(4-((1-(2,4-Dichlorophenyl)cyclopropyl)oxy)-3-fluorophenyl)-2-(4-(ethylsulfonyl)phenyl)acetamide] | 86.8 | 83.6 | < 50
